According to patent US7652067B2, “Aqueous compositions containing monoester salts” (Millenium Specialty Chemicals, Inc., priority 2006, dated 2010):

Legend:
[1] = Control experiment: stirring hydrophobic compound with pure water; details: for control experiment with water: outcome: compound stirred with water without solubilizer
[2] = Organoleptic test of physiological cooling effect
Source text: The resulting mixture is a clear, homogeneous solution of WS-3 (˜0.83%) in aqueous Na-MMG.

[3] = Solubilization of hydrophobic organic compound in aqueous sodium monomenthyl glutarate (Na-MMG); details: for concentration of hydrophobic compound in clear, homogeneous solution in aqueous Na-MMG: MMG neutralised with 8.8% aqueous sodium bicarbonate; for times better dissolved in aqueous Na-MMG than in pure water: aqueous Na-MMG vs pure water
Method: Aqueous sodium bicarbonate (98 g, 8.8% solution) is added over about 20 minutes to a stirred mixture of monomenthyl glutarate (“MMG,” 25 g) and dodecane (3.0 g). After the addition is complete and CO2 evolution stops, the mixture is stirred for 2 h and is then allowed to settle. The resulting mixture is a clear, homogeneous solution of dodecane (˜2.5%) in aqueous sodium monomenthyl glutarate (Na-MMG).
A clear aqueous solution of Na-MMG is obtained by reacting monomenthyl glutarate (25 g) with aqueous sodium bicarbonate (98 g of 8.8% solution). […] The mixture stirs for about 2 h and is allowed to cool to ambient temperature. […] Dilution with an equal volume of water produces a solution that remains clear for more than 40 days.
Aqueous sodium bicarbonate (196 g, 8.8% solution) is added to a stirred mixture of monomenthyl glutarate (50 g) and N-ethyl-p-menthane-3-carboxamide (“WS-3,” 2.0 g). After the addition is complete and CO2 evolution stops, the mixture is stirred for 1 h and is then allowed to sit overnight. The resulting mixture is a clear, homogeneous solution of WS-3 (˜0.83%) in aqueous Na-MMG.
More WS-3 (1.0 g) is added to the aqueous composition. The mixture stirs for 1 h and is allowed to stand overnight. The mixture is filtered to remove undissolved crystals (0.6 g).
Dilution with an equal volume of water produces a solution that remains clear for more than 40 days.

[4] = Dilution of the clear aqueous composition with an equal volume of water (clarity / emulsification); format: physicochemical; details: clear composition in aqueous Na-MMG diluted 1:1 with water
Method: It may be desirable to dilute the aqueous compositions with water. The amount of water that can be added while maintaining a clear aqueous solution depends on many factors known to those skilled in the art, including the nature of the hydrophobic organic compound, the particular monoester salt, the concentration of each of these components, and other factors. In general, the desirability of diluting the aqueous composition is determined empirically.

[5] = Solubilization of hydrophobic organic compound in aqueous sodium monooctyl glutarate (Na-MOG); format: physicochemical; details: MOG 22.6 g, procedure of Example 1
Source text: The procedure of Example 1 is followed except that monooctyl glutarate (MOG, 22.6 g) and p-cymene (5 g) are used. The resulting mixture is a clear, homogeneous solution of p-cymene (˜4.4%) in aqueous sodium monooctyl glutarate (Na-MOG).

[6] = Solubilization of hydrophobic organic compound in aqueous sodium monomenthyl succinate (Na-MMS); format: physicochemical; details: MMS 23.7 g, procedure of Example 1
Source text: The procedure of Example 1 is followed except that monomenthyl succinate (MMS, 23.7 g) and p-cymene (3 g) are used. The resulting mixture is a clear, homogeneous solution of p-cymene (˜2.5%) in aqueous sodium monomenthyl succinate (Na-MMS).

| SMILES | concentration of hydrophobic compound in clear, homogeneous solution in aqueous Na-MMG [3] [%] | time solution remains clear after dilution with an equal volume of water [4] | control experiment with water: outcome [1] | other results |
| --- | --- | --- | --- | --- |
| CCNC(=O)[C@@H]1C[C@H](C)CC[C@H]1C(C)C [WS-3, N-ethyl-p-menthane-3-carboxamide] | ~0.83 |  |  | solubility in pure water ([1]; 20° C.): ~0.03%; cooling effect when tested organoleptically ([2]; filtrate, ~1.0% WS-3 in aqueous Na-MMG): strong cooling effect; cooling effect when tested organoleptically ([2]; ~0.83% WS-3 in aqueous Na-MMG, pH 7.4): strong cooling effect; times better dissolved in aqueous Na-MMG than in pure water [3]: about 33 times; concentration of WS-3 in filtrate (aqueous Na-MMG) after removing undissolved crystals ([3]; more WS-3 added, stood overnight, filtered): ~1.0% |
| CC(C)=CCCC(C)CCO (stereo not drawn) [citronellol] | ~3.6 | more than 40 days | fail to produce a homogeneous mixture |  |
| CC(C)=CCCC(C)CC#N (stereo not drawn) [citronellyl nitrile] | ~3.6 |  | fail to produce a homogeneous mixture | emulsification after dilution with an equal volume of water [4]: immediately produces an emulsion |
| C=C(C)[C@H]1CC=C(C)CC1 [d-limonene] |  |  | fails to produce a homogeneous mixture |  |
| CCCCCCCCCCCC [dodecane] | ~2.5 |  | fails to produce a homogeneous mixture | emulsification after dilution with an equal volume of water [4]: emulsifies within two days; undissolved compound recovered after settling ([1]; 12 g stirred with 876 g water for 2 h): 11.6 g; times better dissolved in aqueous Na-MMG than in pure water [3]: at least 50 times |

Now from value to molecule, other results behind:

| concentration of hydrophobic compound in clear, homogeneous solution in aqueous Na-MMG [3] [%] | time solution remains clear after dilution with an equal volume of water [4] | control experiment with water: outcome [1] | SMILES | other results |
| --- | --- | --- | --- | --- |
| ~3.6 | more than 40 days | fail to produce a homogeneous mixture | C=C(C)[C@@H]1CC=C(C)C(=O)C1 [l-carvone] |  |
| ~2.5 | more than 40 days | no homogeneous mixture results | CC(C)[C@@H]1CC[C@@H](C)C[C@H]1O [l-menthol] | menthol content of aqueous solution in pure water control (gas chromatography) ([1]; 12 g in 876 g water, 2 h, initially 47° C. then ambient, filtered): 0.06%; physiological cooling effect (organoleptic test) ([2]; ~2.5% l-menthol solution in aqueous Na-MMG): strong physiological cooling effect; times better dissolved in aqueous Na-MMG than in pure water [3]: at least 40 times |
|  | more than 40 days | fail to produce a homogeneous mixture | CC(C)[C@@H]1CC[C@@H](C)C[C@H]1OC(=O)[C@H](C)O [l-menthyl lactate] |  |
|  |  | fail to produce a homogeneous mixture | C=CC(C)(O)CCC=C(C)C (stereo not drawn) [linalool] | concentration of hydrophobic compound in clear, homogeneous solution in aqueous Na-MOG [5]: ~2.7% |
| ~3.6 |  | fail to produce a homogeneous mixture | Cc1ccc(C(C)C)cc1 [p-cymene] | concentration of hydrophobic compound in clear, homogeneous solution in aqueous Na-MMS [6]: ~2.5%; emulsification after dilution with an equal volume of water [4]: ≤ 2 days; concentration of hydrophobic compound in clear, homogeneous solution in aqueous Na-MOG [5]: ~4.4% |
|  | more than 40 days | fail to produce a homogeneous mixture | Cc1c(C)c2c(c(C)c1O)CCC(C)(CCCC(C)CCCC(C)CCCC(C)C)O2 (stereo not drawn) [α-tocopherol] | concentration of hydrophobic compound in clear, homogeneous solution in aqueous Na-MOG [5]: ~2.6% |
